Blank lines part the entries; values can stand above or below the compound they belong to.
Experiments:
[1] = test system: selectively-bred alcohol preferring rats; experiment: Alcohol Preferring Rats In Vivo Model (two-bottle choice); parameters: species or system rat; settings: for 6 hr Ethanol (alcohol intake) / 6 hr Preference (alcohol preference): 6 h after administration; for 6 hr Ethanol (alcohol intake) / 6 hr Preference (alcohol preference) / 24 hr Ethanol (alcohol intake) / 24 hr Preference (alcohol preference): mean ± SEM; for 24 hr Ethanol (alcohol intake) / 24 hr Preference (alcohol preference): 24 h after administration
Description: Adult male selectively-bred alcohol preferring rats (which are known in the art to be useful for the study of the effect of test compounds on vountary alcohol intake) were grouped into three groups: vehicle and Compound #8 (50 and 100 mg/kg, po). Rats were housed individually in wire mesh cages under a constant room temperature of 22±1° C. and 12:12 light-dark cycle (8:00-20:00, dark). The animals were fed Agway Prolab Rat/Mouse/ Hamster 3000 formula and water ad libitum.
Alcohol intake was determined using the standard two-bottle choice method. Animals were first given free access to water in a graduated Richter tube for 2 days. Then they were given access to only a solution of 10% (v/v) ethanol for 3 consecutive days. During this period animals became accustomed to drinking from Richter tubes and to the taste and pharmacological effects of alcohol. Thereafter, they were given free access to both water and a solution of 10% alcohol for at least 4 consecutive weeks and throughout the study period. Rats had free access to food. Water and alcohol intake were recorded at 4, 6 and 24 hours after the treatment, whereas food intake was measured at 24 hour. Animals' body weight was measured every day.
After establishment of a stable baseline for alcohol, food, and water intake, rats were administered either vehicle or Compound #8 via oral gavage using a cross-over design with random assignment. To be able to compare the efficacy of these compounds on alcohol intake with an established FDA-approved drug, naltrexone, was included as a positive control. Same rats were given an oral dose of naltrexone (20mg/kg). The interval between treatments was at least 3 days. Alcohol and water intake were recorded 4, 6 and 24 h after the drug administration and food intake was recorded at 24 hr. A total of 8-10 animals per group were used.
The results below are presented as means ±SEM. Alcohol intake (g/kg) was calculated by multiplying the volume of alcohol consumed in ml by 10% and 0.7893 (ethanol density)/body weight in kg. Alcohol preference, expressed as percentage, was calculated as follows: (volume of alcohol consumed in ml/total fluid intake in ml)×100 (Rezvani and Grady, 1994; Rezvani et al., 1997). Statistical differences between drug-treated and control groups were determined by using ANOVA and Turkey Student's t test for multiple comparison.

melting point: 76 to 78 °C
SMILES: CN(C)S(=O)(=O)NCC1COc2ccccc2O1 (racemic)

SMILES: NS(=O)(=O)NC[C@H]1COc2cc(Cl)ccc2O1 [Compound #8, (2S)-(−)-N-(6-Chloro-2,3-dihydro-benzo[1,4]dioxin-2-ylmethyl)-sulfamide]
6 hr Ethanol (alcohol intake) ([1]; 50 mg/kg po): 1.28 ± 0.25 g/kg
6 hr Preference (alcohol preference) ([1]; 50 mg/kg po): 67 ± 11%
24 hr Ethanol (alcohol intake) ([1]; 50 mg/kg po): 4.79 ± 0.5 g/kg
24 hr Preference (alcohol preference) ([1]; 50 mg/kg po): 77 ± 7%
6 hr Ethanol (alcohol intake) ([1]; 100 mg/kg po): 1.33 ± 0.17 g/kg
6 hr Preference (alcohol preference) ([1]; 100 mg/kg po): 75 ± 8%
24 hr Ethanol (alcohol intake) ([1]; 100 mg/kg po): 4.35 ± 0.66 g/kg
24 hr Preference (alcohol preference) ([1]; 100 mg/kg po): 70 ± 9%
effect on ethanol consumption ([1]; alcohol-preferring rats, 6 h post-dosing, 50 and 100 mg/kg dose): decreased ethanol consumption

melting point: 119 to 121 °C
SMILES: NS(=O)(=O)NC[C@H]1COc2cc(Cl)c(Cl)cc2O1

SMILES: O=C1CC[C@@]2(O)[C@H]3Cc4ccc(O)c5c4[C@@]2(CCN3CC2CC2)[C@H]1O5 [Naltrexone, naltrexone, reference compound]
6 hr Ethanol (alcohol intake) ([1]; 20 mg/kg oral): 0.77 ± 0.24 g/kg
6 hr Preference (alcohol preference) ([1]; 20 mg/kg oral): 64 ± 12%
24 hr Ethanol (alcohol intake) ([1]; 20 mg/kg oral): 4.48 ± 0.57 g/kg
24 hr Preference (alcohol preference) ([1]; 20 mg/kg oral): 76 ± 9%

melting point: 97 to 98 °C
SMILES: CN(CC1COc2ccccc2O1)S(N)(=O)=O (racemic)

melting point: 100 to 101 °C
SMILES: NS(=O)(=O)NCC1CCc2ccccc2O1 (stereo not drawn)

melting point: 101 to 103 °C
SMILES: NS(=O)(=O)NCCC1COc2ccccc2O1 (stereo not drawn)
